Assay results reported in patent US20230013823A1, “INHIBITORS OF HUMAN IMMUNODEFICIENCY VIRUS REPLICATION” (VIV HEALTHCARE UK (No. 5) LIMITED, priority 2019, published 2023).
Read-outs that look alike come from different tables or passages of the source.

How the values were obtained:
Type in all cases: cell-based
uninfected MT2 cells = test: Compound cytotoxicity, XTT-based colorimetric assay; settings: day 4, XTT
Experimental: (§1) Compound cytotoxicity and the corresponding CC50 values were determined using the same protocol as described in the antiviral assay except that uninfected cells were used. Cytotoxicity was assessed on day 4 in uninfected MT2 cells by using an XTT (2,3-bis[2-Methoxy-4-nitro-5-sulfophenyl]-2H-tetrazolium-5-carboxyanilide inner salt)-based colorimetric assay (Sigma-Aldrich, St Louis, Mo.).

[1] = tested on: recombinant NL4-3 virus (Renilla luciferase in nef); test: HIV cell culture assay (antiviral activity, luciferase readout in MT-2 cells)
Method in brief: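 MT-2 cells were infected for 4-5 days with 293T-derived recombinant NL4-3 reporter virus in the presence of serially diluted compound. Antiviral activity was quantified as luciferase activity using a live-cell substrate. EC50 was derived from the median effect equation.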

[2] = Compound cytotoxicity, XTT-based colorimetric assay; settings: human; uninfected MT2 cells, day 4, XTT
Experimental: as §1

[3] = MT=2 cells infected for 4-5 days with the recombinant virus, luciferase activity, read-out: EC50

SMILES | CC50 (uninfected MT2 cells) [nM] | EC50 [1, 3] [nM] | CC50 at 4 days [2] [nM] | EC50 ([1]; Renilla, NL43) [nM]
CC(C(=O)NC(Cc1cc(F)cc(F)c1)c1nc2cc(-c3ccn(CC(C)(F)F)n3)ccc2c(=O)n1-c1ccc(Cl)c2c(NS(C)(=O)=O)nn(C)c12)n1ccc(C2CC2)n1 [Example 58, (S)—N—((S)-1-((3P)-3-(4-chloro-1-methyl-3-(methylsulfonamido)-1H-indazol-7-yl)-7-(1-(2,2-difluoropropyl)-1H-pyrazol-3-yl)-4-oxo-3,4-dihydroquinazolin-2-yl)-2-(3,5-difluorophenyl)ethyl)-2-(3-cyclopropyl-1H-pyrazol-1-yl)propanamide] | > 100 | 0.046 |  | 
Cn1nc(NS(C)(=O)=O)c2c(Cl)ccc(-n3c([C@H](Cc4cc(F)cc(F)c4)NC(=O)Cn4nc(C(F)(F)F)c5c4C(F)(F)[C@@H]4C[C@H]54)nc4cc(-c5ccn(CC(F)(F)C(F)F)n5)ccc4c3=O)c21 [Example 59, N—((S)-1-((3P)-3-(4-chloro-1-methyl-3-(methylsulfonamido)-1H-indazol-7-yl)-4-oxo-7-(1-(2,2,3,3-tetrafluoropropyl)-1H-pyrazol-3-yl)-3,4-dihydroquinazolin-2-yl)-2-(3,5-difluorophenyl)ethyl)-2-((3bS,4aR)-5,5-difluoro-3-(trifluoromethyl)-3b,4,4a,5-tetrahydro-1H-cyclopropa[3,4]cyclopenta[1,2-c]pyrazol-1-yl)acetamide] | > 100 | 0.11 |  | 
Cc1cc(-c2ccc3c(=O)n(-c4ccc(Cl)c5c(NS(C)(=O)=O)nn(C)c45)c([C@H](Cc4cc(F)cc(F)c4)NC(=O)Cn4nc(C(F)F)c5c4C(F)(F)[C@@H]4C[C@H]54)nc3c2)nc(C(F)(F)F)n1 (atropisomer, axis not shown; (P)) [Example 26, N—((S)-1-((3P)-3-(4-chloro-1-methyl-3-(methylsulfonamido)-1H-indazol-7-yl)-7-(6-methyl-2-(trifluoromethyl)pyrimidin-4-yl)-4-oxo-3,4-dihydroquinazolin-2-yl)-2-(3,5-difluorophenyl)ethyl)-2-((3bS,4aR)-3-(difluoromethyl)-5,5-difluoro-3b,4,4a,5-tetrahydro-1H-cyclopropa[3,4]cyclopenta[1,2-c]pyrazol-1-yl)acetamide] |  |  | > 100 | 0.087
